Results reported in US20220296572A1, “IMMUNOSUPPRESSIVE THERAPIES FOR USE WITH CARDIOMYOCYTE CELL THERAPIES, AND ASSOCIATED METHODS AND COMPOSITIONS” (Sana Biotechnology, Inc., priority 2021, published 2022).

Columns and labels:
[1] = transplant recipients; cited from earlier work
[2] = Tacrolimus blood trough level in the rhesus recipient; assay type: in vivo, rhesus macaque (Macaca mulatta); settings: subcutaneously twice per day
Protocol: Beginning five days prior to delivery of the cell therapy composition and continuing for 16 weeks after delivery, the rhesus recipient was treated daily with tacrolimus and MMF. Tacrolimus was provided subcutaneously twice per day at a dose yielding a blood trough level of approximately 5-10 ng/mL. MMF was provided orally twice per day, for a total dose of 250 mg MMF per day. If a subject cannot tolerate oral dosing of MMF, MMF can be alternatively provided by intravenous administration. In some cases, if a subject cannot tolerate oral MMF, the subject is administered intravenous MMF until the subject can tolerate oral MMF, at which point the subject is switched from intravenous to oral MMF Immune rejection of the riPSC-CMs 16 weeks after delivery was determined by histopathological analysis.

T cells = settings: relative to CsA; cited from earlier work

Row | SMILES | Safety profile relative to MMF [1] | Therapeutic equivalence to MMF [1] | Blood trough level [2] | Concentrations giving similar effects to CsA, times lower (T cells)
1 | COc1c(C)c2c(c(O)c1C/C=C(\C)CCC(=O)[O-])C(=O)OC2.[Na+] [MS, mycophenolate sodium] | comparable safety profile | therapeutically equivalent to MMF |  | 
2 | C=CC[C@@H]1/C=C(\C)C[C@H](C)C[C@H](OC)[C@H]2O[C@@](O)(C(=O)C(=O)N3CCCC[C@H]3C(=O)O[C@H](/C(C)=C/[C@@H]3CC[C@@H](O)[C@H](OC)C3)[C@H](C)[C@@H](O)CC1=O)[C@H](C)C[C@@H]2OC [Tacrolimus, tacrolimus] |  |  | 5 to 10 ng/mL | 100 times
